Data reported in patent publication US8299021B2, “Macrocyclic inhibitors of hepatitis C virus replication” (InterMune, Inc., priority 2005, dated 2012).
Like-named read-outs stand apart in the source and are kept apart here.

What was measured:
[1] = system: HCV sub-genomic replicon GS4.3 (HuH-7 hepatoma cells); assay: Quantitation by ELISA of neomycin phosphotransferase II (NPTII) in the HCV sub-genomic replicon, GS4.3; format: cell-based
Description: Quantitation by ELISA of the Selectable Marker Protein, Neomycin Phosphotransferase II (NPTII) in the HCV Sub-Genomic Replicon, GS4.3
The HCV sub-genomic replicon (1377/NS3-3′, accession No. AJ242652), stably maintained in HuH-7 hepatoma cells, was created by Lohmann et al. Science 285: 110-113 (1999). The replicon-containing cell culture, designated GS4.3, was obtained from Dr. Christoph Seeger of the Institute for Cancer Research, Fox Chase Cancer Center, Philadelphia, Pa.
GS4.3 cells were maintained at 37° C., 5% CO2, in DMEM (Gibco 11965-092) supplemented with L-glutamine 200 mM (100×) (Gibco25030-081), non-essential amino acids (NEAA)(Biowhittaker 13-114E), heat-inactivated (HI) Fetal Bovine Serum(FBS)(Hyclone SH3007.03) and […] geneticin (G418)(Gibco 10131-035). Cells were sub-divided 1:3 or 4 every 2-3 days.
24 h prior to the assay, GS4.3 cells were collected, counted, and plated in 96-well plates (Costar 3585) at 7500 cells/well in 100 μl standard maintenance medium (above) and incubated in the conditions above. To initiate the assay, culture medium was removed, cells were washed once with PBS (Gibco 10010-023) and 90 μl Assay Medium (DMEM, L-glutamine, NEAA, 10% HI FBS, no G418) was added. Inhibitors were made as a 10× stock in Assay Medium, (3-fold dilutions from 10 μM to […] final concentration, final DMSO concentration 1%), 10 μl were added to duplicate wells, plates were rocked to mix, and incubated as above for 72 h.
An NPTII Elisa kit was obtained from AGDIA, Inc. (Compound direct ELISA test system for Neomycin Phosphotransferase II, PSP 73000/4800). Manufacturer's instructions were followed, with some modifications. 10×PEB-1 lysis buffer was made up to include 500 μM PMSF (Sigma P7626, 50 mM stock in isopropanol). After 72 h incubation, cells were washed once with PBS and 150 μlPEB-1 with PMSF was added per well. Plates were agitated vigorously for 15 minutes, room temperature, then frozen at −70° C. Plates were thawed, lysates were mixed thoroughly, and 100 μl were applied to an NPTII Elisa plate. A standard curve was made. Lysate from DMSO-treated control cells was pooled, serially diluted with PEB-1 with PMSF, and applied to duplicate wells of the ELISA plate, in a range of initial lysate amount of 150 ul-2.5 ul. In addition, 100 μl buffer alone was applied in duplicate as a blank. Plates were sealed and gently agitated at room temperature for 2 h. Following capture incubation, the plates were washed 5×300 μlwith PBS-T (0.5% Tween-20, PBS-T was supplied in the ELISA kit). For detection, a 1× dilution of enzyme conjugate diluent MRS-2 (5×) was made in PBS-T, into which 1:100 dilutions of enzyme conjugates A and B were added, as per instructions. Plates were resealed, and incubated with agitation, covered, room temperature, for 2 h. The washing was then repeated and 100 μlof room temperature TMB substrate was added. After approximately 30 minutes incubation (room temperature, agitation, covered), the reaction was stopped with 50 μl 3M sulfuric acid. Plates were read at 450 nm on a Molecular Devices Versamax plate reader.
Inhibitor effect was expressed as a percentage of DMSO-treated control signal, and inhibition curves were calculated using a 4-parameter equation: y=A+4B-A)/(1+((C/x)^13))), where C is half-maximal activity or EC50.

[2] = target: T1, NS3-NS4 protease (full-length NS3/NS4A-2) (Hepatitis C virus genotype 1a, UniProt P27958); assay: NS3-NS4 protease assay / NS3 inhibition assay (RETS1 substrate, fluorescence kinetic read); format: biochemical; conditions: read-out: NS3-NS4 IC50
T1 construct: Recombinant E. coli or Baculovirus full-length NS3 was diluted to 3.33 μM with assay buffer; made in house; host or cells: E. coli or baculovirus (insect cells)
T1 sequence (P27958 1027-1657): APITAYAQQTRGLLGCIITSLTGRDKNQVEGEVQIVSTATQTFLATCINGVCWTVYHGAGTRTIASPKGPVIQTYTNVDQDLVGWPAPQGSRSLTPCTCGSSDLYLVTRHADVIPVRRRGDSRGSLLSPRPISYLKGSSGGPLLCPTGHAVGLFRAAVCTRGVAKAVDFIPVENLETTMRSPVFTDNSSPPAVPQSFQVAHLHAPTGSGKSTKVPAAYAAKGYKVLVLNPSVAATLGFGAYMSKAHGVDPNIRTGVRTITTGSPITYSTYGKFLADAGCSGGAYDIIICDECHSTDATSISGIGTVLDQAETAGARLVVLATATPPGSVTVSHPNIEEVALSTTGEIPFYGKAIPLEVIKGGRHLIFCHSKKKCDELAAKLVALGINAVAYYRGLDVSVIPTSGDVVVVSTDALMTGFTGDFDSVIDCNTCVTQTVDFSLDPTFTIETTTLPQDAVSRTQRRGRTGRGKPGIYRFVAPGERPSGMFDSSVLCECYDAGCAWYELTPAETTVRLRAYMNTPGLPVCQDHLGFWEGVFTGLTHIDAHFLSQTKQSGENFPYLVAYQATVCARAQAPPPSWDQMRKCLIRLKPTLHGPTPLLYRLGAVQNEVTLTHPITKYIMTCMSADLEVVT

O=C1N[C@]2(C(=O)NS(=O)(=O)C3CC3)C[C@H]2/C=C\CCCCC[C@H](NCc2ccc(CO)o2)C(=O)N2C[C@H](OC(=O)N3Cc4cccc(F)c4C3)C[C@@H]12 [Compound 913]
EC50 ([1]; Hepatitis C virus, Huh-7, GS4.3 cells, 72 h, read-out: Replicon EC50): < 1000 nM
IC50 [2]: < 100 nM

O=C(CCC(F)(F)F)N[C@H]1CCCCC/C=C\[C@@H]2C[C@@]2(C(=O)NS(=O)(=O)C2CC2)NC(=O)[C@@H]2CCCN2C1=O [Compound 2139]
EC50 ([1]; Hepatitis C virus, Huh-7, Table 26, read-out: EC50): < 1000 nM
IC50 [2]: > 10000 nM

(2R,6S,13aS,14aR,16aS,Z)-6-(tert-butoxycarbonylamino)-9,9-difluoro-2-(4-fluoroisoindoline-2-carbonyloxy)-5,16-dioxo-1,2,3,5,6,7,8,9,10,11,13 a,14,14a,15,16,16a-hexadecahydrocyclopropa(e)prrolo[1,2-a][1,4]diazacyclopentadecine-14a-carboxylic acid [Compound 1006]
EC50 ([1]; GS4.3 cells, 72 h, read-out: Replicon EC50): < 10000 nM
IC50 [2]: < 100 nM
